Target: GSK 3α (Homo sapiens (Human), UniProt P49840)
Assay: GSK 3α enzyme inhibition (Method 2), Z-LYTE FRET
Format: biochemical
Conditions: read-out: IC50 Values for Enzyme Inhibition GSK3α
Protocol: The enzyme inhibitory activities of compounds disclosed herein are determined by FRET using synthetic peptides labelled with both donor and acceptor fluorophores (Z-LYTE, Invitrogen Ltd., Paisley, UK).
The following two assay variants can be used for determination of GSK 3α inhibition.
The inhibitory activities of compounds of the invention against the GSK 3α enzyme isoform (Invitrogen), are evaluated by determining the level of activation/phosphorylation of the target peptide. The GSK3-α protein (500 ng/mL, 2.5 μL) is mixed with the test compound (2.5 μL at either 4 μg/mL, 0.4 μg/mL, 0.04 μg/mL, or 0.004 μg/mL) for 2 hr at RT. The FRET peptide (8 μM, 2.5 μL), which is a phosphorylation target for GSK3α, and ATP (40 μM, 2.5 μL) are then added to the enzyme/compound mixture and the resulting mixture incubated for 1 hr. Development reagent (protease, 5 μL) is added for 1 hr prior to detection in a fluorescence microplate reader (Varioskan® Flash, ThermoFisher Scientific).
In all cases, the site-specific protease cleaves non-phosphorylated peptide only and eliminates the FRET signal. Phosphorylation levels of each reaction are calculated using the ratio of coumarin emission (donor) over fluorescein emission (acceptor), for which high ratios indicate high phosphorylation and low ratios indicate low phosphorylation levels.
This method follows the same steps as Method 1 above, but utilises a shorter period of mixing of the test compound (105 minutes instead of 2 hours) with the GSK3-α protein. In addition, the concentrations of test compound employed are either 10 μg/mL, 1 μg/mL, 0.1 μg/mL, or 0.01 μg/mL

GSK 3α, sequence (P49840 whole entry): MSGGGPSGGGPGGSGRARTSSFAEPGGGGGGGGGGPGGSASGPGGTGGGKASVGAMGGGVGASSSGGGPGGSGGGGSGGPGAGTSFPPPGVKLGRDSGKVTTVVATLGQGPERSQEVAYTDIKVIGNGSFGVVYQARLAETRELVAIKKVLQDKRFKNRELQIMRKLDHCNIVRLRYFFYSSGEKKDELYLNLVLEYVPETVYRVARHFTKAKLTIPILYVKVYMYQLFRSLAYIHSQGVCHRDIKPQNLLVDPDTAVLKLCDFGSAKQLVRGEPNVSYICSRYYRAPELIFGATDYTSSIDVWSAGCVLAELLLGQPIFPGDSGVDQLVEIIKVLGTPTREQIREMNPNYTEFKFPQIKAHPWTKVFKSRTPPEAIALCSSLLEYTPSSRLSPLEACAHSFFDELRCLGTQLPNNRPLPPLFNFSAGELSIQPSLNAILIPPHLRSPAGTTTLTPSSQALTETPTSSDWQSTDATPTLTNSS

Structure (SMILES) | IC50
COCCOCCOC[C@@H](C)NC(=O)c1ccc(Nc2cc(Oc3ccc(NC(=O)Nc4cc(C(C)(C)C)cc(NS(C)(=O)=O)c4OC)c4ccccc34)ccn2)cc1OC [17(g), 4-[[4-[[4-[[5-tert-butyl-3-(methanesulfonamido)-2-methoxy-phenyl]carbamoylamino]-1-naphthyl]oxy]-2-pyridyl]amino]-2-methoxy-N-[(1R)-2-[2-(2-methoxyethoxy)ethoxy]-1-methyl-ethyl]benzamide] | 4.1 µM
COCCOCCOC[C@H](C)NC(=O)c1ccc(Nc2cc(Oc3ccc(NC(=O)Nc4cc(C(C)(C)C)cc(NS(C)(=O)=O)c4OC)c4ccccc34)ccn2)cc1OC [17(h), 4-[[4-[[4-[[5-tert-butyl-3-(methanesulfonamido)-2-methoxy-phenyl]carbamoylamino]-1-naphthyl]oxy]-2-pyridyl]amino]-2-methoxy-N-[(1S)-2-[2-(2-methoxyethoxy)ethoxy]-1-methyl-ethyl]benzamide] | 4.39 µM
COc1cc(Nc2cc(Oc3ccc(NC(=O)Nc4cc(C(C)(C)C)cc(NS(C)(=O)=O)c4OC)c4ccccc34)ccn2)ccc1C(=O)NCCCCC(=O)O [17(s), 5-[[4-[[4-[[4-[[5-tert-butyl-3-(methanesulfonamido)-2-methoxy-phenyl]carbamoylamino]-1-naphthyl]oxy]-2-pyridyl]amino]-2-methoxy-benzoyl]amino]pentanoic acid] | 0.394 µM
COc1c(NC(=O)Nc2ccc(Oc3ccnc(Nc4ccc(C(=O)O)cc4)c3)c3ccccc23)cc(C(C)(C)C)cc1NS(C)(=O)=O [17(t), 4-[[4-[[4-[[5-tert-butyl-3-(methanesulfonamido)-2-methoxy-phenyl]carbamoylamino]-1-naphthyl]oxy]-2-pyridyl]amino]benzoic acid] | 0.14 µM
COCCOCCOCCNC(=O)c1ccc(Nc2cc(Oc3ccc(NC(=O)Nc4cc(C(C)(C)C)cc(NS(C)(=O)=O)c4OC)c4ccccc34)ccn2)cc1OC [Example 5, 4-((4-((4-(3-(5-(tert-Butyl)-2-methoxy-3-(methylsulfonamido)phenyl)ureido)naphthalen-1-yl)oxy)pyridin-2-yl)amino)-2-methoxy-N-(2-(2-(2-methoxyethoxy)ethoxy)ethyl)benzamide] | 1.34 µM
COCCOCCOCCNC(=O)c1ccc(Nc2cc(Oc3ccc(NC(=O)Nc4cc(C(C)(C)C)cc(C(N)=O)c4OC)c4ccccc34)ccn2)cc1OC [Example 6, 4-((4-((4-(3-(5-(tert-Butyl)-3-carbamoyl-2-methoxyphenyl)ureido)naphthalen-1-yl)oxy)pyridin-2-yl)amino)-2-methoxy-N-(2-(2-(2-methoxyethoxy)ethoxy)ethyl)benzamide] | 1.9 µM
COCCOCCOCCOc1ccc(Nc2cc(Oc3ccc(NC(=O)Nc4cc(C(C)(C)C)cc(NS(C)(=O)=O)c4OC)c4ccccc34)ccn2)cc1C#N [Example 8, N-(5-(tert-Butyl)-3-(3-(4-((2-((3-cyano-4-(2-(2-(2-methoxyethoxy)ethoxy)ethoxy)phenyl)amino)pyridin-4-yl)oxy)naphthalen-1-yl)ureido)-2-methoxyphenyl)methanesulfonamide] | 3.77 µM
COc1c(NC(=O)Nc2ccc(Oc3ccnc(Nc4ccc(OCCN5CCOCC5)c(C#N)c4)c3)c3ccccc23)cc(C(C)(C)C)cc1NS(C)(=O)=O [Example 9, N-(5-(tert-Butyl)-3-(3-(4-((2-((3-cyano-4-(2-morpholinoethoxy)phenyl)amino)pyridin-4-yl)oxy)naphthalen-1-yl)ureido)-2-methoxyphenyl)methanesulfonamide] | 4.34 µM
COc1c(NC(=O)Nc2ccc(Oc3ccnc(Nc4ccc(OCCCN5CCOCC5)c(C#N)c4)c3)c3ccccc23)cc(C(C)(C)C)cc1NS(C)(=O)=O [Example 10, N-(5-(tert-Butyl)-3-(3-(4-((2-((3-cyano-4-(3-morpholinopropxy)phenyl)amino)pyridin-4-yl)oxy)naphthalen-1-yl)ureido)-2-methoxyphenyl)methanesulfonamide] | 5.56 µM
COCCOCCOCC[S+]([O-])c1ccc(Nc2cc(Oc3ccc(NC(=O)Nc4cc(C(C)(C)C)cc(NS(C)(=O)=O)c4OC)c4ccccc34)ccn2)cc1OC (stereo not drawn) [Example 11, N-(5-(tert-Butyl)-2-methoxy-3-(3-(4-((2-((3-methoxy-4-((2-(2-(2-methoxyethoxy)ethoxy)ethyl)sulfinyl)phenyl)amino)pyridin-4-yl)oxy)naphthalen-1-yl)ureido)phenyl)methanesulfonamide] | 1.3 µM

Other lines, results leading:

IC50 | Structure (SMILES)
0.594 µM | COc1cc(Nc2nccc(Oc3ccc(NC(=O)Nc4cc(C(C)(C)C)cc(NS(C)(=O)=O)c4OC)c4ccccc34)n2)ccc1C(=O)NCCN1CCOCC1 [17(i), 4-[[4-[[4-[[5-tert-butyl-3-(methanesulfonamido)-2-methoxy-phenyl]carbamoylamino]-1-naphthyl]oxy]pyrimidin-2-yl]amino]-2-methoxy-N-(2-morpholinoethyl)benzamide]
> 11.9 µM | COc1cc(Nc2cc(Oc3ccc(NC(=O)Nc4cc(C(C)(C)C)cc(NS(C)(=O)=O)c4OC)c4ccccc34)ccn2)ccc1C(=O)NCCN1CCOCC1(C)C [17(k), 4-[[4-[[4-[[5-tert-butyl-3-(methanesulfonamido)-2-methoxy-phenyl]carbamoylamino]-1-naphthyl]oxy]-2-pyridyl]amino]-N-[2-(3,3-dimethylmorpholin-4-yl)ethyl]-2-methoxy-benzamide]
> 12.1 µM | COc1cc(Nc2cc(Oc3ccc(NC(=O)Nc4cc(C(C)(C)C)cc(NS(C)(=O)=O)c4OC)c4ccccc34)ccn2)ccc1C(=O)NCCN1CCSCC1 [17(l), 4-[[4-[[4-[[5-tert-butyl-3-(methanesulfonamido)-2-methoxy-phenyl]carbamoylamino]-1-naphthyl]oxy]-2-pyridyl]amino]-2-methoxy-N-(2-thiomorpholinoethyl)benzamide]
2.77 µM | COc1cc(Nc2cc(Oc3ccc(NC(=O)Nc4cc(C(C)(C)C)cc(NS(C)(=O)=O)c4OC)c4ccccc34)ccn2)ccc1C(=O)NCCN1CCC(O)CC1 [17(m), 4-[[4-[[4-[[5-tert-butyl-3-(methanesulfonamido)-2-methoxy-phenyl]carbamoylamino]-1-naphthyl]oxy]-2-pyridyl]amino]-N-[2-(4-hydroxy-1-piperidyl)ethyl]-2-methoxy-benzamide]
> 11.9 µM | COc1cc(Nc2cc(Oc3ccc(NC(=O)Nc4cc(C(C)(C)C)cc(NS(C)(=O)=O)c4OC)c4ccccc34)ccn2)ccc1C(=O)NCC(C)(C)N1CCOCC1 [17(n), 4-[[4-[[4-[[5-tert-butyl-3-(methanesulfonamido)-2-methoxy-phenyl]carbamoylamino]-1-naphthyl]oxy]-2-pyridyl]amino]-2-methoxy-N-(2-methyl-2-morpholino-propyl)benzamide]
3.32 µM | COc1cc(Nc2cc(Oc3ccc(NC(=O)Nc4cc(C(C)(C)C)cc(NS(C)(=O)=O)c4OC)c4ccccc34)ccn2)ccc1S(=O)(=O)N(C)CCN1CCOCC1 [17(o), 1-[5-tert-butyl-3-(methanesulfonamido)-2-methoxy-phenyl]-3-[4-[[2-[3-methoxy-4-[methyl(2-morpholinoethyl)sulfamoyl]anilino]-4-pyridyl]oxy]-1-naphthyl]urea]
1.98 µM | COc1cc(Nc2cc(Oc3ccc(NC(=O)Nc4cc(C(C)(C)C)cc(NS(C)(=O)=O)c4OC)c4ccccc34)ccn2)ccc1C(=O)NCCN1CCCC1 [17(q), 4-[[4-[[4-[[5-tert-butyl-3-(methanesulfonamido)-2-methoxy-phenyl]carbamoylamino]-1-naphthyl]oxy]-2-pyridyl]amino]-2-methoxy-N-(2-pyrrolidin-1-ylethyl)benzamide]
4.04 µM | COc1cc(Nc2cc(Oc3ccc(NC(=O)Nc4cc(C(C)(C)C)cc(NS(C)(=O)=O)c4OC)c4ccccc34)ccn2)ccc1C(=O)NCCN1CCS(=O)(=O)CC1 [17(r), 4-[[4-[[4-[[5-tert-butyl-3-(methanesulfonamido)-2-methoxy-phenyl]carbamoylamino]-1-naphthyl]oxy]-2-pyridyl]amino]-N-[2-(1,1-dioxo-1,4-thiazinan-4-yl)ethyl]-2-methoxy-benzamide]
0.674 µM | COc1cc(Nc2cc(Oc3ccc(NC(=O)Nc4cc(C(C)(C)C)cc(NS(C)(=O)=O)c4OC)c4ccccc34)ccn2)ccc1C(=O)NCCN1CCNCC1 [17(w), 4-[[4-[[4-[[5-tert-butyl-3-(methanesulfonamido)-2-methoxy-phenyl]carbamoylamino]-1-naphthyl]oxy]-2-pyridyl]amino]-2-methoxy-N-(2-piperazin-1-ylethyl)benzamide]
2.02 µM | COc1cc(Nc2cc(Oc3ccc(NC(=O)Nc4cc(C(C)(C)C)cc(C(N)=O)c4OC)c4ccccc34)ccn2)ccc1C(=O)NCCN1CCOCC1 [Example 4, 4-((4-((4-(3-(5-(tert-Butyl)-3-carbamoyl-2-methoxyphenyl)ureido)naphthalen-1-yl)oxy)pyridin-2-yl)amino)-2-methoxy-N-(2-morpholinoethyl)benzamide]
1.1 µM | COc1cc(Nc2cc(Oc3ccc(NC(=O)Nc4cc(C(C)(C)C)cc(NS(C)(=O)=O)c4OC)c4ccccc34)ccn2)ccc1C(=O)NCCN1CC[S+]([O-])CC1 [Example 7, 4-((4-((4-(3-(5-(tert-Butyl)-2-methoxy-3-(methylsulfonamido)phenyl)ureido)naphthalen-1-yl)oxy)pyridin-2-yl)amino)-2-methoxy-N-(2-(1-oxidothiomorpholino)ethyl)benzamide]

— patent US9751837B2, “Kinase inhibitors” (RESPIVERT LIMITED, priority 2014, dated 2017)
